Experiment [1] has as its target T1, Kras and SOS1 (biotin-tagged human Kras loaded with GDP, His-tagged human SOS1) (Homo sapiens, UniProt P01116, G12D).
T1 construct: made in house; host or cells: E. coli (stated for Kras only)
The experiment can be described thus: Protein-protein interaction inhibition between Kras and SOS1 (KrasGl2D-SOS PPI) using AlphaScreen. The class given is binding. Conditions: AlphaScreen; biotin-tagged human Kras loaded with GDP, His-tagged human SOS1; read-out: KRAS G12D-SOS PPI IC50. In short, it runs like this: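 Donor beads (nickel) hold His-SOS1; acceptor beads (streptavidin) hold biotin-Kras bound to GDP. Signal measured at 520-620 nm following 680 nm excitation.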

The subject of experiment [2] is Human pancreatic cancer cell line AsPC-1. The experiment can be described thus: Measurement of AsPC-1 cell growth inhibition (AsPC-1 CGI). The class given is cell-based. Conditions: 96 h. The essentials:
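AsPC-1 cells in 15% FBS RPMI-1640 were exposed to test compound for 96 hours at 37° C, with CellTiter-Glo as endpoint.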

Starred links: 1 amine or outer side, 2 acyl side, 3 side chain; linkers in the order of their positions; H or OH if unused. Positions of bridges follow the written chain, without caps; N, C: chain ends. Non-standard residues stand in square brackets, D forms with d. Residues, ends and D or L forms follow the SMILES beside them. *: point of attachment. hPhe(3-Cl-4-CF3) = N[C@@H](CCc1ccc(C(F)(F)F)c(Cl)c1)C(=O)O; NMePhe(4-CF3) = CN[C@@H](Cc1ccc(C(F)(F)F)cc1)C(=O)O; X25 = CN([C@@H](Cc1ccc(C(F)F)cc1)C(=O)[*:2])[*:1]; 3Oxa8azabicyclo(3.2.1)octane = C1CC2COCC1N2*; NMePhe(4-Me) = CN[C@@H](Cc1ccc(C)cc1)C(=O)O; NMePhe(2-Me) = CN[C@@H](Cc1ccccc1C)C(=O)O; NMeAla(cPent) = CN[C@@H](CC1CCCC1)C(=O)O; NMeNva(5,5-F2) = CN[C@@H](CCC(F)F)C(=O)O; NMeGly(cPent) = CN[C@H](C(=O)O)C1CCCC1; NMe4Pal = CN[C@@H](Cc1ccncc1)C(=O)O; NMeCha = CN[C@@H](CC1CCCCC1)C(=O)O; NMeChg = CN[C@H](C(=O)O)C1CCCCC1; NMeI = CC[C@H](C)[C@H](NC)C(=O)O; NMeE = CN[C@@H](CCC(=O)O)C(=O)O; NMeD = CN[C@@H](CC(=O)O)C(=O)O; NMeL = CN[C@@H](CC(C)C)C(=O)O; NMeNva = CCC[C@H](NC)C(=O)O; NMeAbu = CC[C@H](NC)C(=O)O; NMeS = CN[C@@H](CO)C(=O)O; Morpholide = C1CN(*)CCO1; NMeA = CN[C@@H](C)C(=O)O; Pyrrolidide = C1CCN(*)C1; Ac5c = NC1(C(=O)O)CCCC1; Aze = O=C(O)[C@@H]1CCN1; Sar = CNCC(=O)O; Propyl = CCC*

T1 sequence (P01116 1-188 isoform P01116-2 G12D): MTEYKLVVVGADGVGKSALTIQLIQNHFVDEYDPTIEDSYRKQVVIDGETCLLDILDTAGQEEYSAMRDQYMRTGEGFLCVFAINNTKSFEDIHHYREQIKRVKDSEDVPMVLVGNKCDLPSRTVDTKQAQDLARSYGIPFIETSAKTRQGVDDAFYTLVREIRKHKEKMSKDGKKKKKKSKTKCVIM

In the case of `CC[C@H](C)[C@@H]1NC(=O)[C@H](CC(C)C)N(C)C(=O)C[C@@H](C(=O)N(C)C)N(C)C(=O)[C@H](C2CCCC2)N(C)C(=O)C2(CCCC2)NC(=O)[C@H](CCC(F)F)N(C)C(=O)[C@H](CCc2ccc(C(F)(F)F)c(Cl)c2)NC(=O)CN(C)C(=O)[C@H](CC2CCCCC2)N(C)C(=O)[C@@H]2CCN2C(=O)[C@H](C)N(C)C1=O` [Compound 1907] ([NMeL]I[NMeA][Aze][NMeCha][Sar][hPhe(3-Cl-4-CF3)][NMeNva(5,5-F2)][Ac5c][NMeGly(cPent)][NMeD]-NMe2; lactam N-11), the concentration for half-maximal inhibition (IC50) in experiment [1] was 1.3 nM; in experiment [2], 20 to 50 nM.
`CC(C)C[C@H]1C(=O)N[C@@H](C(C)C)C(=O)N(C)CC(=O)N(C)CC(=O)N(C)[C@@H](CC2CCCCC2)C(=O)N(C)CC(=O)N[C@@H](CCc2ccc(C(F)(F)F)c(Cl)c2)C(=O)N2CCC[C@H]2C(=O)NC2(CCCC2)C(=O)N(C)[C@@H](C2CCCCC2)C(=O)N(C)[C@H](C(=O)N2CCOCC2)CC(=O)N1C` [Compound 1908] ([NMeL]V[Sar][Sar][NMeCha][Sar][hPhe(3-Cl-4-CF3)]P[Ac5c][NMeChg][NMeD]-Morpholide; lactam N-11): the results for the IC50 in experiment [1] and in experiment [2] were 0.65 nM and 50 to 100 nM, respectively.
On the same counts, the results for `CC[C@H](C)[C@@H]1NC(=O)[C@H](CC(C)C)N(C)C(=O)C[C@@H](C(=O)N(C)C)N(C)C(=O)[C@H]([C@@H](C)CC)N(C)C(=O)C2(CCCC2)NC(=O)[C@H](CCC(=O)NC)N(C)C(=O)[C@H](CCc2ccc(C(F)(F)F)c(Cl)c2)NC(=O)CN(C)C(=O)[C@H](Cc2ccc(C)cc2)N(C)C(=O)[C@@H]2CCN2C(=O)[C@H](C)N(C)C1=O` [Compound 1911] ([NMeL]I[NMeA][Aze][NMePhe(4-Me)][Sar][hPhe(3-Cl-4-CF3)][NMeE](NHMe)[Ac5c][NMeI][NMeD]-NMe2; lactam N-11) are 0.67 nM and 50 to 100 nM.
For the molecule `CC[C@H](C)[C@@H]1NC(=O)[C@H](CC(C)C)N(C)C(=O)C[C@@H](C(=O)N(C)C)N(C)C(=O)[C@H](C2CCCC2)N(C)C(=O)C2(CCCC2)NC(=O)[C@H](Cc2ccncc2)N(C)C(=O)[C@H](CCc2ccc(C(F)(F)F)c(Cl)c2)NC(=O)CN(C)C(=O)[C@H](CC2CCCCC2)N(C)C(=O)[C@@H]2CCN2C(=O)[C@H](C)N(C)C1=O` [Compound 1913] ([NMeL]I[NMeA][Aze][NMeCha][Sar][hPhe(3-Cl-4-CF3)][NMe4Pal][Ac5c][NMeGly(cPent)][NMeD]-NMe2; lactam N-11), the IC50 in experiment [1] was 1.1 nM; in experiment [2], 100 to 500 nM.
On the same counts, the results for `CC[C@H](C)[C@@H]1NC(=O)[C@H](CC)N(C)C(=O)C[C@@H](C(=O)N2CCOCC2)N(C)C(=O)[C@H](C2CCCCC2)N(C)C(=O)C2(CCCC2)NC(=O)[C@@H]2CCCN2C(=O)[C@H](CCc2ccc(C(F)(F)F)c(Cl)c2)NC(=O)CN(C)C(=O)[C@H](CC2CCCCC2)N(C)C(=O)CN(C)C(=O)CN(C)C1=O` [Compound 1915] ([NMeAbu]I[Sar][Sar][NMeCha][Sar][hPhe(3-Cl-4-CF3)]P[Ac5c][NMeChg][NMeD]-Morpholide; lactam N-11) are 0.38 nM and 50 to 100 nM.
On the same counts, the results for `CCC[C@H]1C(=O)N[C@@H]([C@@H](C)CC)C(=O)N(C)CC(=O)N(C)CC(=O)N(C)[C@@H](CC2CCCC2)C(=O)N(C)CC(=O)N[C@@H](CCc2ccc(C(F)(F)F)c(Cl)c2)C(=O)N2CCC[C@H]2C(=O)NC2(CCCC2)C(=O)N(C)[C@@H](C2CCCCC2)C(=O)N(C)[C@H](C(=O)N2C3CCC2COC3)CC(=O)N1C` [Compound 1916] ([NMeNva]I[Sar][Sar][NMeAla(cPent)][Sar][hPhe(3-Cl-4-CF3)]P[Ac5c][NMeChg][NMeD]-{3Oxa8azabicyclo(3.2.1)octane}; lactam N-11) are 0.99 nM and 100 to 500 nM.
Turning to `CC[C@H](C)[C@@H]1NC(=O)[C@H](CC(C)C)N(C)C(=O)C[C@@H](C(=O)N(C)C)N(C)C(=O)[C@H](C2CCCC2)N(C)C(=O)C2(CCCC2)NC(=O)[C@H](CCC(=O)NC)N(C)C(=O)[C@H](CCc2ccc(C(F)(F)F)c(Cl)c2)NC(=O)CN(C)C(=O)[C@H](CC2CCCCC2)N(C)C(=O)[C@@H]2CCN2C(=O)[C@H](C)N(C)C1=O` [Compound 1921] ([NMeL]I[NMeA][Aze][NMeCha][Sar][hPhe(3-Cl-4-CF3)][NMeE](NHMe)[Ac5c][NMeGly(cPent)][NMeD]-NMe2; lactam N-11), the IC50 in experiment [1] is 0.83 nM; in experiment [2], 100 to 500 nM.
On the same counts, the results for `CC[C@H](C)[C@@H]1NC(=O)[C@H](CC(C)C)N(C)C(=O)C[C@@H](C(=O)N2CCOCC2)N(C)C(=O)[C@H](C2CCCCC2)N(C)C(=O)C2(CCCC2)NC(=O)[C@@H]2CCCN2C(=O)[C@H](CCc2ccc(C(F)(F)F)c(Cl)c2)NC(=O)CN(C)C(=O)[C@H](CC2CCCC2)N(C)C(=O)CN(C)C(=O)CN(C)C1=O` [Compound 1923] ([NMeL]I[Sar][Sar][NMeAla(cPent)][Sar][hPhe(3-Cl-4-CF3)]P[Ac5c][NMeChg][NMeD]-Morpholide; lactam N-11) are 0.89 nM and 50 to 100 nM.
The corresponding values for `CC[C@H](C)[C@@H]1NC(=O)[C@H](CC(C)C)N(C)C(=O)C[C@@H](C(=O)N(C)C)N(C)C(=O)[C@H]([C@@H](C)CC)N(C)C(=O)C2(CCCC2)NC(=O)[C@H](Cc2ccccc2C)N(C)C(=O)[C@H](CCc2ccc(C(F)(F)F)c(Cl)c2)NC(=O)CN(C)C(=O)[C@H](Cc2ccc(C)cc2)N(C)C(=O)[C@@H]2CCN2C(=O)[C@H](C)N(C)C1=O` [Compound 1924] ([NMeL]I[NMeA][Aze][NMePhe(4-Me)][Sar][hPhe(3-Cl-4-CF3)][NMePhe(2-Me)][Ac5c][NMeI][NMeD]-NMe2; lactam N-11) are 5.1 nM and 100 to 500 nM.
For the molecule `CC[C@H](C)[C@@H]1NC(=O)[C@H](CC(C)C)N(C)C(=O)C[C@@H](C(=O)N(C)C)N(C)C(=O)[C@H](C2CCCC2)N(C)C(=O)C2(CCCC2)NC(=O)[C@H](Cc2ccc(C(F)F)cc2)N(C)C(=O)[C@H](CCc2ccc(C(F)(F)F)c(Cl)c2)NC(=O)CN(C)C(=O)[C@H](CC2CCCCC2)N(C)C(=O)[C@@H]2CCN2C(=O)[C@H](C)N(C)C1=O` [Compound 1926] ([NMeL]I[NMeA][Aze][NMeCha][Sar][hPhe(3-Cl-4-CF3)][X25][Ac5c][NMeGly(cPent)][NMeD]-NMe2; lactam N-11), the IC50 in experiment [1] was 21 nM; in experiment [2], 100 to 500 nM.
The corresponding values for `CC(C)C[C@H]1C(=O)N[C@@H](C(C)C)C(=O)N(C)CC(=O)N(C)CC(=O)N(C)[C@@H](CC2CCCCC2)C(=O)N(C)CC(=O)N[C@@H](CCc2ccc(C(F)(F)F)c(Cl)c2)C(=O)N2CCC[C@H]2C(=O)NC2(CCCC2)C(=O)N(C)[C@@H](C2CCCCC2)C(=O)N(C)[C@H](C(=O)N2C3CCC2COC3)CC(=O)N1C` [Compound 1928] ([NMeL]V[Sar][Sar][NMeCha][Sar][hPhe(3-Cl-4-CF3)]P[Ac5c][NMeChg][NMeD]-{3Oxa8azabicyclo(3.2.1)octane}; lactam N-11) are 0.5 nM and 100 to 500 nM.
On the same counts, the results for `CCCOC[C@H]1C(=O)N(C)CC(=O)N[C@@H](CCc2ccc(C(F)(F)F)c(Cl)c2)C(=O)N2CCC[C@H]2C(=O)NC2(CCCC2)C(=O)N(C)[C@@H](C2CCCCC2)C(=O)N(C)[C@H](C(=O)N2CCCC2)CC(=O)N(C)[C@@H](CC)C(=O)N[C@@H]([C@@H](C)CC)C(=O)N(C)CC(=O)N(C)CC(=O)N1C` [Compound 1929] ([NMeAbu]I[Sar][Sar][NMeS](Propyl)[Sar][hPhe(3-Cl-4-CF3)]P[Ac5c][NMeChg][NMeD]-Pyrrolidide; lactam N-11) are 0.61 nM and 100 to 500 nM.
On the same counts, the results for `CC[C@H](C)[C@@H]1NC(=O)[C@H](CC(C)C)N(C)C(=O)C[C@@H](C(=O)N(C)C)N(C)C(=O)[C@H]([C@@H](C)CC)N(C)C(=O)C2(CCCC2)NC(=O)[C@H](Cc2ccc(C(F)F)cc2)N(C)C(=O)[C@H](CCc2ccc(C(F)(F)F)c(Cl)c2)NC(=O)CN(C)C(=O)[C@H](Cc2ccc(C)cc2)N(C)C(=O)[C@@H]2CCN2C(=O)[C@H](C)N(C)C1=O` [Compound 1930] ([NMeL]I[NMeA][Aze][NMePhe(4-Me)][Sar][hPhe(3-Cl-4-CF3)][X25][Ac5c][NMeI][NMeD]-NMe2; lactam N-11) are 3.6 nM and 20 to 50 nM.
Take `CC[C@H](C)[C@@H]1NC(=O)[C@H](CC)N(C)C(=O)C[C@@H](C(=O)N2CCCC2)N(C)C(=O)[C@H](C2CCCCC2)N(C)C(=O)C2(CCCC2)NC(=O)[C@@H]2CCCN2C(=O)[C@H](CCc2ccc(C(F)(F)F)c(Cl)c2)NC(=O)CN(C)C(=O)[C@H](CC2CCCC2)N(C)C(=O)CN(C)C(=O)CN(C)C1=O` [Compound 1931] ([NMeAbu]I[Sar][Sar][NMeAla(cPent)][Sar][hPhe(3-Cl-4-CF3)]P[Ac5c][NMeChg][NMeD]-Pyrrolidide; lactam N-11): the figures for the IC50 in experiment [1] and in experiment [2] were 0.56 nM and 100 to 500 nM, respectively.
On the same counts, the results for `CC[C@H](C)[C@@H]1NC(=O)[C@H](CC(C)C)N(C)C(=O)C[C@@H](C(=O)N2C3CCC2COC3)N(C)C(=O)[C@H](C2CCCCC2)N(C)C(=O)C2(CCCC2)NC(=O)[C@@H]2CCCN2C(=O)[C@H](CCc2ccc(C(F)(F)F)c(Cl)c2)NC(=O)CN(C)C(=O)[C@H](Cc2ccc(C(F)(F)F)cc2)N(C)C(=O)CN(C)C(=O)CN(C)C1=O` [Compound 1932] ([NMeL]I[Sar][Sar][NMePhe(4-CF3)][Sar][hPhe(3-Cl-4-CF3)]P[Ac5c][NMeChg][NMeD]-{3Oxa8azabicyclo(3.2.1)octane}; lactam N-11) are 1.1 nM and 50 to 100 nM.

These data come from patent US12371454B2, “Cyclic peptide compound having Kras inhibitory action” (priority 2019, dated 2025).
